Series [1] deals with T1, LFA-1 binding to immobilized ICAM-1 (Homo sapiens, UniProt P05107+P20701).
T1 construct: made in house; host or cells: transfected 293 cells (LFA-1)
The experiment in a line: LFA-1/ICAM-1 Protein-Protein Assay (solid-phase ELISA). To be noted: 5dICAM-Ig coated plates; membrane-bound LFA-1 from transfected 293 cells. Here is the method:
LFA-1/ICAM-1 Protein-Protein Assay
LFA-1/ICAM-1 antagonist activity, defined as the ability to block LFA-1 binding to immobilized ICAM-1, was quantitated using a solid-phase ELISA. Typically, fusion protein consisting of the entire extracellular domain of human ICAM-1 and the Fc domain of human IgG (5dICAM-Ig) was coated onto 96-well microtiter plates (0.15 μg in 100 μL PBS) overnight at 4° C. The plates were then blocked with 150 μL of 1% BSA/1 mM MnCl2/0.14 M NaCl/20 mM HEPES, pH 7.2 for 1 h at 37° C. and washed 3 times (150 μL each) with Wash Buffer (50 mM Tris, pH 7.4/100 mM NaCl/1 mM MnCl2/0.05% Tween 20). Stock solutions (100 μM in 100% DMSO) of test compounds were diluted 50 fold with 150 μL of Binding Buffer (0.05% BSA/0.05% Tween 20/1 mM MnCl2/0.14 M NaCl/20 mM HEPES, pH 7.2) plus 10% DMSO. A series of 1:4 dilutions were performed to achieve a concentration range of 0.12 nM-2 μM. Fifty μL per well of each dilution was added to the ICAM-1 coated plates, followed by 50 μL per well of membrane-bound LFA-1 (280 ng/mL in Binding Buffer) derived from transfected 293 cells. The plates were shaken vigorously for 1 min (room temperature) and gently for 2 h (37° C.). After incubation, the plates were washed 3 times (150 μL each) with Wash Buffer. Mouse anti-human integrin β2 monoclonal antibody was added (100 μL/well, 1 μg/ml in Binding Buffer) and allowed to incubate for 1 h (37° C.) with gentle agitation. The plates were then washed 3 times with Wash Buffer. HRP-conjugated goat anti-mouse IgG (100 μL/well, 1:1500 dilution in Binding Buffer) was added to each well, followed by incubation for 1 h (37° C.) and concluded by three washes (150 μL each) with Wash Buffer. TMB solution (100 μL per well) was added for color development (10 min). The reaction was stopped by the addition of 100 μL of 1M H3PO4 to each well. The plates were then read at 450 nm.
For orientation: In an ELISA, binding on a coated surface is turned into a signal by an enzyme label.

For series [2], the system named is T lymphocyte proliferation (murine spleen cells). The experiment in a line: Mixed Lymphocyte Reaction (MLR), one-way. Type of series: cell-based, mice. The following applies: Mus musculus, T-lymphocyte, light or radiation study, 72 h, C57B1/6 spleen cells with irradiated BALB/c spleen cells; tritiated thymidine incorporation, 3 days. From the text: Mixed Lymphocyte Reaction (MLR)
Admixture of murine spleen cells from two different inbred strains of mice induces proliferation of T lymphocytes. The magnitude of T cell proliferation depends on the extent of disparity in the major histocompatibility antigens between the two strains. Splenic T lymphocytes from both strains proliferate due to alloantigen recognition, a process for which the interaction of ICAM-1 on antigen-presenting cells with LFA-1 on lymphocytes is necessary. The ability of antagonists to inhibit T lymphocyte proliferation following recognition of alloantigens was assessed in a one-way MLR, where cells from one strain were irradiated to permit measurement of the proliferative response of cells from the other strain. Spleen cells were washed three times in tissue culture medium (TCM; see below). Fifty microliters of a spleen cell suspension (prepared at 10×10^6 cells/ml in TCM) obtained from C57B1/6 mice were added to an equal number of lethally-irradiated (2000 rads) spleen cells obtained from BALB/c mice in a 96-well U-bottom tissue culture plate (Costar, 3799). One hundred microliters of serial dilutions of antagonists or TCM were added to the spleen cell mixture. The total volume in each well was 200 μL. TCM was RPMI1640 containing 10% heat-inactivated fetal bovine serum, […] L-glutamine, 100 Units/ml each of penicillin and streptomycin and 5×10^−5 M 2-mercaptoethanol. Dilutions of antagonists were prepared in TCM. Plates were incubated in 5% CO2 for 3 days. On the third day, 0.5 μCi of tritiated thymidine (10 μCi/mL) was added to all the wells. Cells were harvested 6 h later on a 96-well plate harvester and the amount of tritiated thymidine incorporated was assessed in a liquid scintillation counter.

24 molecules from patent US6515124B2, “Dehydroamino acids” (Hoffman-La Roche Inc., priority 2000, dated 2003) can be followed below.

Each structure is given as a SMILES string.

T1 sequence (P20701 26-1170): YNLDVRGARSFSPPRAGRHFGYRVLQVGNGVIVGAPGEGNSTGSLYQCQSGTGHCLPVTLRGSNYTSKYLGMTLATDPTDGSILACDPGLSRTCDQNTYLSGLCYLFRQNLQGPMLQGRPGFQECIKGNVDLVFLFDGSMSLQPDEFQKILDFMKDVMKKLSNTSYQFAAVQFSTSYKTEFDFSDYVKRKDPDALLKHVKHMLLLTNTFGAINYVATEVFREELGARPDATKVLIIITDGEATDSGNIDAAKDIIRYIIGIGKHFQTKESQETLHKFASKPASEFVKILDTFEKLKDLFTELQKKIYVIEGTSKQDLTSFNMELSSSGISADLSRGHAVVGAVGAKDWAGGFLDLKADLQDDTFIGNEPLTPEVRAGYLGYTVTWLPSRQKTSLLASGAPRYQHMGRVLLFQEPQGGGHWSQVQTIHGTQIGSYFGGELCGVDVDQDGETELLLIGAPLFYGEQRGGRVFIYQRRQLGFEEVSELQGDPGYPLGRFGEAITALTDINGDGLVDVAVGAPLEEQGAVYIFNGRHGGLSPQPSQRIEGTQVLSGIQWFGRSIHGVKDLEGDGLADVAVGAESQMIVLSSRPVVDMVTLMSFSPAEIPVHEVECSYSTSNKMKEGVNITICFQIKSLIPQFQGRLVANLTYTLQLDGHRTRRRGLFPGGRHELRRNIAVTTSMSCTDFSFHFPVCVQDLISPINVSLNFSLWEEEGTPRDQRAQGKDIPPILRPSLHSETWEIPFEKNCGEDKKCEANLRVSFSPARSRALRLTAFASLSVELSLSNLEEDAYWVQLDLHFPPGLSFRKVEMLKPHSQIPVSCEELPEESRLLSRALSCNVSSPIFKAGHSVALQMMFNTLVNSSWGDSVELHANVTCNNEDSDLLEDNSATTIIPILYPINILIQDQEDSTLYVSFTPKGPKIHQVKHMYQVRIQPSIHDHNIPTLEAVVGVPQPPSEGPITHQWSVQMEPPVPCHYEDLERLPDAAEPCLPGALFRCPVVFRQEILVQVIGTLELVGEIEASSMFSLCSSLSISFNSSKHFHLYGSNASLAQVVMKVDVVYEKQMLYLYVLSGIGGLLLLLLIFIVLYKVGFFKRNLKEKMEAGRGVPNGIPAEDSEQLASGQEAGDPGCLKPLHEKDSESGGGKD
T1 sequence (P05107 23-769): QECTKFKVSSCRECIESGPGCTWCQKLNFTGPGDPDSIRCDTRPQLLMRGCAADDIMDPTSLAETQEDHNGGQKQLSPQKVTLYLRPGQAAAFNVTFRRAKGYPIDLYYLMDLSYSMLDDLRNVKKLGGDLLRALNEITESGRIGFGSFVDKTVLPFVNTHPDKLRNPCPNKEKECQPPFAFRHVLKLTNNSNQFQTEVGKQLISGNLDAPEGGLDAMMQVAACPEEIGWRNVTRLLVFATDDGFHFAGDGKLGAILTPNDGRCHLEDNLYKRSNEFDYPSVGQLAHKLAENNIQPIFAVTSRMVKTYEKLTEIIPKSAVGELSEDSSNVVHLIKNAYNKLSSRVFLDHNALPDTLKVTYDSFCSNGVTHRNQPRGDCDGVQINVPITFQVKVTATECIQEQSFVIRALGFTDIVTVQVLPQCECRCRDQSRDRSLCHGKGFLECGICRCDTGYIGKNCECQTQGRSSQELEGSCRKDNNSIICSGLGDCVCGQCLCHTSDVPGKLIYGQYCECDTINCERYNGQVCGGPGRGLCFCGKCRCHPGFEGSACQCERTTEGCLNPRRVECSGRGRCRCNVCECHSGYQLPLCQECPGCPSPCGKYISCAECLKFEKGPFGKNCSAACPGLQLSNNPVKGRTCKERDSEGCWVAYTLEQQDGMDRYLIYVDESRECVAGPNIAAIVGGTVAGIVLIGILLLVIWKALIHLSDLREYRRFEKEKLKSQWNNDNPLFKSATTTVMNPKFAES

The term IC50 denotes the midpoint of a concentration-inhibition curve. A low value points to greater potency in that assay. A word on the melting point: it is the temperature of the solid-liquid transition. Turning to `CCc1nc(C)c(/C=C(\NC(=O)c2ccc(C(=O)NCc3cccc(O)c3)cc2Cl)C(=O)O)s1` [Example 304, (Z)-2-[[2-Chloro-4-[[(3-hydroxybenzyl)amino]carbonyl]benzoyl]amino]-3-(2-ethyl-4-methylthiazole-5-yl)propenoic Acid], the melting point is over 200 °C. In series [1], this molecule displayed a half-inhibitory concentration (IC50) of 3 nM. Also, the IC50 in series [2] is 2100 nM.
As for `O=C(O)/C(=C/c1cc2c(cc1Cl)OCO2)NC(=O)c1ccc(C(=O)NCc2cccc(O)c2)cc1Cl` [Example 315], the IC50 in series [1] is 1.89 nM; in series [2] it was 2500 nM.
As for `Cc1nc(C)c(/C=C(\NC(=O)c2ccc(C(O)/C=C/c3cccc(O)c3)cc2Cl)C(=O)O)s1` (racemic) [Example 299, rac.-(Z)-2-[[2-Chloro-4-[(E)-1-hydroxy-3-(3-hydroxyphenyl)prop-2-en-1-yl]benzoyl]amino]-3-(2,4-dimethylthiazol-5-yl)propenoic Acid], the IC50 in series [1] is 13.1 nM; in series [2], 10000 nM.
Take `O=C(O)/C(=C/c1cnc(Cl)s1)NC(=O)c1ccc(C(=O)NCc2cccc(O)c2)cc1Cl` [Example 266]: the 50% inhibitory concentration (IC50) in series [1] was determined as 2.7 nM; in series [2] it was 9000 nM.
The like results for `Cc1noc(C)c1/C=C(\NC(=O)c1ccc(C(=O)NCc2cccc(O)c2)cc1Br)C(=O)O` [Example 281] were, in that order, 244 nM and 14500 nM.
The like results for `O=C(O)/C(=C/c1cccc2ccccc12)NC(=O)c1ccc(C(=O)NCc2cccc(O)c2)cc1Br` [Example 270] were, in that order, 20.3 nM and 20000 nM.
`Cc1nc(/C=C(\NC(=O)c2ccc(C(=O)NCc3cccc(O)c3)cc2Br)C(=O)O)cs1` [Example 235, (Z)-2-[[2-Bromo-4-[[(3-hydroxybenzyl)amino]carbonyl]benzoyl]amino]-3-(2-methylthiazol-4-yl)propenoic Acid]: the figures for the half-maximal inhibitory concentration (IC50) in series [1] and in series [2] were 42.9 nM and 13500 nM, respectively.
The like results for `CC(C)c1ncsc1/C=C(\NC(=O)c1ccc(C(=O)NCc2cccc(O)c2)cc1Cl)C(=O)O` [Example 300, (Z)-2-[[2-Chloro-4-[[(3-hydroxybenzyl)amino]carbonyl]benzoyl]amino]-3-[4-(1-methylethyl)thiazol-5-yl]propenoic Acid] were, in that order, 32.5 nM and 21500 nM.
The like results for `O=C(O)/C(=C/c1ccc2nonc2c1)NC(=O)c1ccc(C(=O)NCc2cccc(O)c2)cc1Cl` [Example 246] were, in that order, 2.4 nM and 7850 nM.
As to `Cc1cc(C(=O)N[C@H](C)c2cccc3ccccc23)cc(C)c1C(=O)N/C(=C\c1ccccc1)C(=O)O` [Example 237], the results for the half-maximal inhibitory concentration (IC50) in series [1] and in series [2] were 27 nM and 20000 nM, respectively.
The like results for `Cc1cc(C(=O)N[C@H](C)c2cccc3ccccc23)cc(C)c1C(=O)N/C(=C\c1[nH]cnc1C)C(=O)O` [Example 240] were, in that order, 4.78 nM and 3470 nM.
The like results for `O=C(O)/C(=C/c1nc[nH]n1)NC(=O)c1ccc(C(=O)NCc2cccc(O)c2)cc1Br` [Example 290, (Z)-2-[[2-Bromo-4-[[(3-hydroxybenzyl)amino]carbonyl]benzoyl]amino]-3-(1,2,4triazol-3-yl)propenoic Acid] were, in that order, 13.4 nM and 1300 nM.
The like results for `O=C(O)/C(=C/c1ccc2ccccc2c1)NC(=O)c1ccc(C(=O)NCc2cccc3[nH]ccc23)cc1Cl` [Example 307] were, in that order, 18.6 nM and 27000 nM.
As for `Cc1nc(C(C)C)sc1/C=C(\NC(=O)c1ccc(C(=O)NCc2cccc(O)c2)cc1Cl)C(=O)O` [Example 301, 2-[[2-Chloro-4-[[(3-hydroxybenzyl)amino]carbonyl]benzoyl]amino]-3-[2-(1-methylethyl)-4-methylthiazol-5-yl]propenoic Acid], the concentration for half-maximal inhibition (IC50) in series [1] stood at 3.03 nM; in series [2] it was 4250 nM.
For the molecule `Cc1cc(C(=O)N[C@H](C)c2cccc3ccccc23)cc(C)c1C(=O)N/C(=C\c1ncc[nH]1)C(=O)O` [Example 236], the IC50 stood at 25.6 nM in series [1] and 7180 nM in series [2].
On to `O=C(O)/C(=C/c1cccnc1)NC(=O)c1ccc(C(=O)NCc2cccc(O)c2)cc1Br` [Example 279], for which the half-inhibitory concentration (IC50) in series [1] stood at 6.2 nM; in series [2], 1300 nM.
The like results for `C[C@@H](NC(=O)c1cc(Cl)c(C(=O)N/C(=C\c2cnc3ccccc3c2)C(=O)O)c(Cl)c1)c1cccc2ccccc12` [Example 252] were, in that order, 2.68 nM and 2500 nM.
On to `Cc1cc(C(=O)NCc2cc(F)cc(F)c2)cc(C)c1C(=O)N/C(=C\c1cnc2ccccc2c1)C(=O)O` [Example 253], for which the concentration for half-maximal inhibition (IC50) amounted to 6.54 nM in series [1] and 8100 nM in series [2].
The like results for `Cc1cc(C(=O)NCc2cccc(O)c2)ccc1C(=O)N/C(=C\c1cnc2ccccc2c1)C(=O)O` [Example 312] were, in that order, 4.7 nM and 990 nM.
The like results for `O=C(O)/C(=C/c1ccccc1O)NC(=O)c1ccc(C(=O)NCc2cccc(O)c2)cc1Br` [Example 272] were, in that order, 1.4 nM and 1500 nM.
For `NS(=O)(=O)c1ccc(/C=C(\NC(=O)c2ccc(C(=O)NCc3cccc(O)c3)cc2Cl)C(=O)O)cc1` [Example 323, (Z)-3-(4-Aminosulfonylphenyl)-2-[[2-chloro-4-[[(3-hydroxybenzyl)amino]carbonyl]benzoyl]amino]propenoic Acid], the IC50 was determined as 0.84 nM in series [1] and 230 nM in series [2].
The like results for `Nc1ncc(/C=C(\NC(=O)c2ccc(C(=O)NCc3cccc(O)c3)cc2Cl)C(=O)O)s1` [Example 287] were, in that order, 0.65 nM and 1400 nM.
For the molecule `O=C(O)/C(=C/c1ccccc1)NC(=O)c1ccc(C(=O)NCc2cccc(O)c2)cc1Cl` [Example 282], the figures for the IC50 in series [1] and in series [2] were 4.46 nM and 1900 nM, respectively.
The like results for `Cc1cc(C(=O)NCc2cccc(O)c2)ccc1C(=O)N/C(=C\c1ccc2cc[nH]c2c1)C(=O)O` [Example 316, (Z)-2-[[4-[[(3-Hydroxybenzyl)amino]carbonyl]-2-methylbenzoyl]amino]-3-(1N-indol-6-yl)propenoic Acid] were, in that order, 3 nM and 1150 nM.
